Values joined by “and” are separate entries in the source; they are usually repeats but may differ in a detail not shown here. Equal entries are not always repeated.
System: A2780 OC cells and TAMs
Test: Orthotopic mouse OC model (intraperitoneal A2780 cells, with or without TAMs): tumor weight, ascitic fluid, IF and FACS
Format: in vivo
From the text: Shown are immunofluorescent staining of CD68 (macrophage marker, red) and E-Cadherin (cancer cells, green) (a) and quantification of CD68 positive cells (b) in vehicle, NHWD-870 treated H526 (n = 6) and A2780 (n = 5) tumors from Fig. 3a, b, respectively. Scale bar is 100 μm. […] Shown are representative immunofluorescent staining of Ki67 and CD68 (c) and quantification of percentage of Ki67+ cells in CD68+ cells (d). Scale bar is 30 μm. Data are presented as mean ± SEM of five different tumors. e Schematics of the animal experiments using an orthotopic mouse OC model, established by intraperitoneally injecting human A2780 cells into female recipient nude mice. Mice were then either untreated (Ctrl) or treated with NHWD-870 (PO, QD, 3 mg/kg) for 45 days. Half of the recipient mice received A2780 cells plus TAMs isolated from tumors of OC-bearing donor mice. f, g Tumor weights (f) and ascitic fluid volumes (g) at day 45 for mice in (e). […] Shown are representative immunofluorescent staining of Ki67 and CD68 (h) and quantification of Ki67^+CD68^− (i) or Ki67^+CD68^+ (j), or CD68^+ cells (k). Scale bar is 50 μm. Data are presented as mean ± SEM from five different mice. p values were calculated using two-tailed, unpaired t tests in this figure. *p < 0.05; **p < 0.01; ***p < 0.001. Source data are provided as a Source Data file.
To extend our findings, we examined the effects of NHWD-870 in an orthotopic mouse OC model, in which we intraperitoneally injected A2780 OC cells, alone or together with F4/80^+CD11b^+CD206^+ TAMs isolated from the tumor tissues of OC-bearing donor mice 3 days later (Fig. 4e). […] These phenotypes were due to increased proliferation of both tumor cells and macrophages (Ki67^+CD68^− and Ki67^+CD68^+ cells, respectively) (Fig. 4h–i, Ctrl+TAM vs Ctrl). […] The inability to rescue was not due to the limited amount of TAMs (Fig. 4k, CD68^+ cells and Supplementary Fig.11c, d, CD11b^+CD206^+ cells, NHWD-870+TAM vs Ctrl), but likely due to the limited number of proliferating TAMs (Fig. 4j, Ki67^+CD68^+ cells, NHWD-870+TAM vs Ctrl).
4–6 weeks old female BALB/c nude mice were used for most experiments, with the exception of 6–8 weeks old female C57BL/6 mice were used for B16F10 experiments, and 6–8 weeks old male BALB/c nude mice and SD rats were used for pharmacokinetic experiments. All animals were purchased from Shanghai SIPPR-Bk Lab Animal Co., Ltd. All animals were housed under a regimen of 12 h light/12 h dark cycles and specific pathogen-free conditions. 5×10^6 NCI-H526, ES-2, MDA-MB231, A2780, A375, B16F10, and TMD-8 cells (0.1 ml) were injected subcutaneously into female nude mice. The melanoma patient-derived xenograft model was derived from a human melanoma sample (BRAF, NARS and NF1 wild type, and p53 mutant) removed from a patient in Xiangya Hospital. Surgically removed tumor fragments were implanted subcutaneously into female NSG mice. […] Mouse body weight and tumor sizes were measured every 3 days. […] Ascitic volume and tumor weight were measured by an electronic balance. All the procedures were evaluated and approved by the Institutional Animal Care and Use Committee of Central South University and Yale University. […]
with anti-CD45, CD11b and CD206 followed by FACS analysis. Shown are representative FACS plots (c) and quantification of the percentage of CD11b+CD206+ cells (d). Data are presented as mean ± SEM from 5 different mice. p values were calculated using two-tailed, unpaired t tests. **, p<0.01; ***, p<0.001. […]

[1] = day 45, PO, QD, 3 mg/kg, +TAM, 3 mg/kg

With `Cc1nnn(C)c1-c1cnc2c3c4cnn(C)c4ccc3n([C@H](c3ccccc3)C3CCOCC3)c2c1` [NHWD-870] the “quantification of CD68+ cells” value [1] was 15 and 17.9 and 19.9 and 12 and 16.7, the “quantification of Ki67+CD68− cells” value [1] was 10 and 7 and 13 and 9 and the “fold reduction, in vivo effects on TAMs” value (in vivo) was ~ 16 fold. The “inhibition of proliferating TAMs” value (mouse OC model, Fig. 4j) was 94% and the “proliferating TAMs (Ki67+CD68+ cells), mean” value (mouse OC model, Fig. 4j, Ctrl […]) was 0.16%.

From paper PMC7156724, “Potent BRD4 inhibitor suppresses cancer cell-macrophage interaction” (Nature Communications, 2020)
